Measurements published in US20040014812A1, “Remedies for keratoconjunctival diseases containing farnesyl acetate as the active ingredient” (SANTEN PHARMACEUTICAL CO. LTD, priority 2000, published 2004).

System: lacrimal gland-nictitating membrane-harderian gland-enucleated rabbit dry eye models
Assay: Rose bengal intake of cornea in rabbit dry eye models after instillation of ophthalmic solutions
Format: in vivo
Conditions: rabbit dry eye model
Experimental: An effect of farnesylacetic acid on dry eye was studied by using lacrimal gland-nictitating membrane-harderian gland-enucleated rabbit dry eye models.
Lacrimal gland-nictitating membrane-harderian gland-enucleated rabbit dry eye models were prepared by reference to the method of Girbard et al. (Invest. Ophthalmol. Vis. Sci., 28: 225-228 (1987)). Namely, a 7:1 mixture of a 5% ketamine hydrochloride injection and a 2% xylazine hydrochloride injection was injected into rabbits in an amount of 1 ml/kg to anesthetize the rabbits systemically. A 0.4% oxybuprocaine hydrochloride ophthalmic solution was instilled into the rabbits, lower lid skin was dissected in length of about 5 mm along an orbital bone, and then a lacrimal gland was enucleated from the outside of a conjunctival sac. The skin at the dissected site was sutured with 4-0 sutures, and an ofloxacin eye ointment was applied to the sutured site. Next, a harderian gland was enucleated while drawing it out with a nictitating membrane. Finally, the ofloxacin eye ointment was applied to the enucleated site.
Farnesylacetic acid ophthalmic solutions were prepared by diluting farnesylacetic acid with the following vehicle so that its concentrations were 0.75, 7.5 and 75 μM. A gefarnate ophthalmic solution was prepared by diluting gefarnate with the same vehicle so that its concentration was 7.5 mM. All the obtained ophthalmic solutions had pH of 7.4 and osmotic pressure of 1.0.
Each farnesylacetic acid ophthalmic solution (50 μl) was instilled into the lacrimal gland-nictitating membrane-harderian gland-enucleated rabbits six times per day for two weeks (four rabbits and eight eyes per group. The vehicle and gefarnate were instilled similarly as a control group and a comparative group respectively.
Effects on dry eye were evaluated by measuring rose bengal intake. A 7:1 mixture of a 5% ketamine hydrochloride injection and a 2% xylazine hydrochloride injection was injected into the rabbits in an amount of 1 ml/kg to anesthetize the rabbits systemically, then eyelids were opened with an eye speculum, and the conjunctival sacs were filled with physiological saline containing 1% rose bengal. The eyes were maintained for 10 seconds and then washed with physiological saline. A 5% pentobarbital injection was injected into the rabbits to euthanatize them, and eyeballs were enucleated. Corneal pieces were prepared with a trephine having an inner diameter of 8 mm, put into 1 ml of 2 M sodium hydroxide and allowed to stand under light resistance for one day to dissolve corneal tissues completely. Absorbance at a wavelength of 560 nm of the obtained tissue-dissolved solutions was measured with a spectrophotometer.
Rose bengal stains a portion containing no mucin layer in keratoconjunctiva. […] Accordingly, when the mucin layer decreases because of dry eye, rose bengal intake of the corneal tissues increases, and the absorbance of the tissue-dissolved solution increases.

SMILES | Effect compared with gefarnate (7.5 mM administration group) (75 μM administration group, about 1/100 of the gefarnate concentration) | Rose bengal intake compared with vehicle administration group (0.75, 7.5 and 75 μM administration groups) | Absorbance (560 nm) of corneal tissue-dissolved solution (rose bengal intake) (ophthalmic solution 0.75 μM, 50 μl instilled six times per day for two weeks) | Absorbance (560 nm) of corneal tissue-dissolved solution (rose bengal intake) (ophthalmic solution 7.5 μM, 50 μl instilled six times per day for two weeks) | Absorbance (560 nm) of corneal tissue-dissolved solution (rose bengal intake) (ophthalmic solution 75 μM, 50 μl instilled six times per day for two weeks) | Absorbance (560 nm) of corneal tissue-dissolved solution (rose bengal intake) (ophthalmic solution 7.5 mM, instilled six times per day for two weeks)
CC(C)=CCC/C(C)=C/CC/C(C)=C/CCC(=O)O [Farnesylacetic acid, farnesylacetic acid] | an effect equal to that of gefarnate | apparently less than that in the vehicle administration group | 0.169 | 0.139 | 0.093 | –
CC(C)=CCC/C(C)=C/CC/C(C)=C/CCC(=O)OC/C=C(\C)CCC=C(C)C [gefarnate, reference compound] | – | – | – | – | – | 0.075
